In patent US20150166505A1, “PYRIDINYL-SUBSTITUTED PYRAZOLYL CARBOXAMIDES” (GRÜNENTHAL GMBH, priority 2013, published 2015) one finds inhibition and IC50 data, which are given here for 19 molecules.

Experiment [1] concerns the target T1, CRAC channel (endogenous SOC in HEK293 cells) (Homo sapiens, UniProt Q96D31).
T1 construct: endogenous in cells; host or cells: HEK293 (ECACC)
Put plainly: HEK Calcium Influx Assay (FLIPR). It counts as cell-based. On the procedure:
The effect of compounds of the invention on intracellular [Ca^2+] was tested in the HEK293 cell line (ECACC). HEK293 cells were cultured in DMEM/F12/Glutamax (Gibco) containing 10% FCS (Gibco), and maintained at 37° C., 5% CO2. Cell were split twice a week [3*10^6 (Mon-Thu) and 1*10^6 (Thu-Mon) cells/50 ml medium in T-175 ZK culture flasks, respectively]. Twenty four hours pre-experiment, cells were seeded on 96 well plates (Poly-D-Lysine 96well Black/Clear Plate, BD Biocoat REF 356640) at a density of 40,000 cells/well in DMEM/F12 (Gibco) containing 10% FCS (Gibco), and maintained at 37° C., 5% CO2. Prior to store-depletion, cell culture medium was removed and cells were loaded with the a Calcium-sensitive fluorescent dye comprised within the Calcium-4-assay kit (Molecular Devices) in nominally Ca^2+-free HBS buffer (140 mM NaCl, 4 mM KCl, 0.2 mM MgCl2, 11 mM D-glucose, and 10 mM HEPES, pH 7.4) according to manufacturer's instruction for 60 min at 37° C., 5% CO2. Passive depletion of intracellular Ca^2+-stores was then triggered by employing the SERCA inhibitor thapsigargin (2 μM final) for 10 min in the dark (RT). To prevent immediate Ca^2+-entry via the activated Store-operated channels (SOCs), cells were maintained in Ca^2+-free HBS buffer comprising 100 μM EGTA during store-depletion. Intracellular changes in [Ca^2+] were subsequently monitored with the FLIPR device (Molecular Devices). In brief, baseline imaging post-store depletion was allowed for 1 min before adjusting the extracellular buffer to 3 mM CaCl2. Increases in intracellular [Ca^2+] due to pre-activated SOC channels were monitored for 15 min until intracellular Ca^2+ levels had declined into a steady-state. Finally, compounds were administered and Ca^2+ signals were recorded for additional 10 min. Inhibition of endogenous SOC in HEK293 cells was quantified employing the average Ca^2+ signal measured from 9.5-10 min post-administration. Zero percent inhibition (MAX) was defined as the Ca^2+ signal recorded from wells to which DMSO-only had been added instead of compound. Hundred percent inhibition (MIN) was defined as the signal obtained from wells in which cells haven't been treated with TG prior to Ca^2+ addition and to which DMSO-only had been added instead of compound. For routine IC50 determinations of compounds, 8 concentrations of a serial dilution (1:3.16) were tested, starting off from 10 μM. Reliable IC50's could consequently be determined only, if they were at least sub 2.5-3 μM.

In experiment [2] the test system is Interleukin-2 (IL-2) production/release in Jurkat T cell line. The experiment in a line: Jurkat IL-2 Production Assay. It is filed as cell-based. Particulars: Homo sapiens; Jurkat T cells, PHA stimulation 22 hours. On the procedure:
Jurkat IL-2 Production Assay
The effect of compounds of the invention on Interleukin-2 (IL-2) production/release was tested in the Jurkat T cell line (ECACC) clone E6-1. Jurkat T cells were cultured in DMEM/F12/Glutamax (Gibco) containing 10% FCS (Gibco), and maintained at 37° C., 5% CO2. Cell were split twice a week [5*10^6 (Mon-Thu) and 1*10^7 (Thu-Mon) cells/50 ml medium in T-175 ZK culture flasks, respectively]. Prior to experiment, cells were seeded on 96 well plates (Cellstar 96 Well; Cat No. 655180, Greiner bio-one) at a density of 5*10^5 cells/well in DMEM/F12/Glutamax (Gibco) containing 10% FCS (Gibco), and incubated for 60 min at 37° C., 5% CO2. Subsequently, compounds were added and cells were allowed to incubate for 30 min at 37° C., 5% CO2. Cells were then stimulated with 15 μg/ml Phytohemagglutinin (PHA; Sigma) for 22 hours at 37° C., 5% CO2. Before sampling of the supernatants, cells were spun down (200*g/5 min/RT). The amount of IL-2 released into the supernatant was quantified with the human IL-2 AlphaLisa kit (Perkin Elmer) according to manufacturer's instructions. Luminescence proximity measurements were carried out in the Synergy H4 reader (BioTek) employing the fluorescence setting of the reader (ex: 680/30 nm; em: 620/40 nm). Inhibition of IL-production/release in/from Jurkat T cells was quantified as follows: Zero percent inhibition (MAX) was defined as the [IL-2] determined in supernatants derived from cells to which PHA & DMSO-only had been added instead of compound. Hundred percent inhibition (MIN) was defined as the [IL-2] determined in supernatants derived from cells that had been pre-treated with 1 μM CyclosporineA (Sigma) before the addition of 15 μg/ml PHA. For routine IC50 determinations of compounds, 8 concentrations of a serial dilution (1:3.16) were tested, starting off from 10 μM.

Where [3] appears, read: thapsigargin store depletion, read-out: % inhib. [@ 10 μM] FLIPR.
The mark [4] stands for this setting: numeric values of Table 2, read-out: inhib. [@ 10 μM] FLIPR.

Structures can show the parent of a compound that is named as a salt. Where two headings read alike, the source gives them in different places.

T1 sequence (Q96D31 whole entry): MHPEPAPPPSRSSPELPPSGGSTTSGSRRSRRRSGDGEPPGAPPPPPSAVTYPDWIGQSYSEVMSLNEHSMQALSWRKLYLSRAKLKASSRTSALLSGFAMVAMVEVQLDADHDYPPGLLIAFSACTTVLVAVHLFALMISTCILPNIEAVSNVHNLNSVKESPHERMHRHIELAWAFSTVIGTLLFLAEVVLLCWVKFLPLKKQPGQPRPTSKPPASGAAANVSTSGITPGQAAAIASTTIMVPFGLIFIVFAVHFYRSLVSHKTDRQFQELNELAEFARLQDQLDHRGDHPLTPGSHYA

One may read the IC50 as the point on the concentration scale where inhibition reaches its midpoint. For `COc1cc(OC2COC2)ncc1-c1cc(C(=O)Nc2c(F)cccc2F)nn1C` [Example 62, N-(2,6-Difluoro-phenyl)-5-[4-methoxy-6-(oxetan-3-yloxy)-pyridin-3-yl]-1-methyl-1H-pyrazole-3-carboxylic acid amide], the inhibition at 10 µM in experiment [1] (setting [3]) lay within 50 to 70%. Further, the IC50 in experiment [2] was in the range of 1 to 5 µM.
With `Cc1cc(OC2CC2)ncc1-c1cc(C(=O)Nc2c(F)cncc2F)nn1C` [Example 9, 5-(6-Cyclopropyloxy-4-methyl-pyridin-3-yl)-N-(3,5-difluoro-pyridin-4-yl)-1-methyl-1H-pyrazole-3-carboxylic acid amide], the inhibition at 10 µM was 76% in experiment [1] (setting [4]) and over 70% in experiment [1] (setting [3]). Besides, the IC50 in experiment [2] fell in the range of 0.5 to 1 µM.
For the molecule `COc1cc(OCC2CCC2)ncc1-c1cc(C(=O)Nc2c(F)cccc2F)nn1C` [Example 55, 5-[6-(Cyclobutyl-methoxy)-4-methoxy-pyridin-3-yl]-N-(2,6-difluoro-phenyl)-1-methyl-1H-pyrazole-3-carboxylic acid amide], the inhibition at 10 µM in experiment [1] (setting [3]) is over 70%. The IC50 in experiment [2] was under 0.5 µM.
The corresponding values for `COc1cc(OCC(F)(F)F)ncc1-c1cc(C(=O)Nc2c(F)cccc2F)nn1C` [Example 46, N-(2,6-Difluoro-phenyl)-5-[4-methoxy-6-(2,2,2-trifluoro-ethoxy)-pyridin-3-yl]-1-methyl-1H-pyrazole-3-carboxylic acid amide] are over 70% and under 0.5 µM.
The corresponding values for `COc1cc(OC)c(-c2c(C)c(C(=O)Nc3c(F)cccc3F)nn2C)cn1` [Example 64, N-(2,6-Difluoro-phenyl)-5-(4,6-dimethoxy-pyridin-3-yl)-1,4-dimethyl-1H-pyrazole-3-carboxylic acid amide] are over 70% and 1 to 5 µM.
The corresponding values for `CCOc1cc(OC)c(-c2cc(C(=O)Nc3c(F)cccc3F)n[nH]2)cn1` [Example 68, N-(2,6-Difluoro-phenyl)-5-(6-ethoxy-4-methoxy-pyridin-3-yl)-1H-pyrazole-3-carboxylic acid amide hydrochloride] are over 70% and 1 to 5 µM.
For `COc1cc(OC(F)F)ncc1-c1cc(C(=O)Nc2c(F)cccc2F)nn1C` [Example 43, 5-[6-(Difluoro-methoxy)-4-methoxy-pyridin-3-yl]-N-(2,6-difluoro-phenyl)-1-methyl-1H-pyrazole-3-carboxylic acid amide], the inhibition at 10 µM in experiment [1] (setting [3]) was over 70%. For the same molecule, in experiment [2], the IC50 is under 0.5 µM.
As for `COc1cc(OC2CC2)ncc1-c1cc(C(=O)Nc2c(F)cccc2F)nn1C` [Example 61, 5-(6-Cyclopropyloxy-4-methoxy-pyridin-3-yl)-N-(2,6-difluoro-phenyl)-1-methyl-1H-pyrazole-3-carboxylic acid amide], the inhibition at 10 µM in experiment [1] (setting [3]) was over 70%. For the same molecule, the IC50 in experiment [2] is under 0.5 µM.
With `COCCOc1cc(C)c(-c2cc(C(=O)Nc3c(F)cccc3F)nn2C)cn1` [Example 28, N-(2,6-Difluoro-phenyl)-5-[6-(2-methoxy-ethoxy)-4-methyl-pyridin-3-yl]-1-methyl-1H-pyrazole-3-carboxylic acid amide], the inhibition at 10 µM is 87% in experiment [1] (setting [4]) and over 70% in experiment [1] (setting [3]). The IC50 in experiment [2] is 1 to 5 µM.
Consider `Cn1nc(C(=O)Nc2c(F)cncc2F)cc1-c1cnc(C2CC2)cc1C(F)(F)F` [Example 63, 5-[6-Cyclopropyl-4-(trifluoromethyl)-pyridin-3-yl]-N-(3,5-difluoro-pyridin-4-yl)-1-methyl-1H-pyrazole-3-carboxylic acid amide], for which, in experiment [1] (setting [3]), the inhibition at 10 µM was over 70%. Also, in experiment [2], the IC50 was in the range of 1 to 5 µM.
In the same order, the values of `Cc1c(-c2cc(C(=O)Nc3c(F)cncc3F)nn2C)cnc(C2CC2)c1F` [Example 34, 5-(6-Cyclopropyl-5-fluoro-4-methyl-pyridin-3-yl)-N-(3,5-difluoro-pyridin-4-yl)-1-methyl-1H-pyrazole-3-carboxylic acid amide] are over 70% and 1 to 5 µM.
In the same order, the values of `COc1cc(OC)c(-c2c(C)c(C(=O)Nc3cnc(C)cc3C)nn2C)cn1` [Example 66, 5-(4,6-Dimethoxy-pyridin-3-yl)-N-(4,6-dimethyl-pyridin-3-yl)-1,4-dimethyl-1H-pyrazole-3-carboxylic acid amide] are 50 to 70% and 1 to 5 µM.
In the same order, the values of `Cc1c(-c2cc(C(=O)Nc3c(F)cccc3F)nn2C)cnc(C2CC2)c1F` [Example 33, 5-(6-Cyclopropyl-5-fluoro-4-methyl-pyridin-3-yl)-N-(2,6-difluoro-phenyl)-1-methyl-1H-pyrazole-3-carboxylic acid amide] are over 70% and 1 to 5 µM.
For `COc1cc(C2CC2)ncc1-c1cc(C(=O)Nc2c(F)cccc2F)nn1C` [Example 54, 5-(6-Cyclopropyl-4-methoxy-pyridin-3-yl)-N-(2,6-difluoro-phenyl)-1-methyl-1H-pyrazole-3-carboxylic acid amide], the inhibition at 10 µM in experiment [1] (setting [3]) is over 70%. The IC50 in experiment [2] was under 0.5 µM.
As for `CCOc1cc(C)c(-c2cc(C(=O)Nc3c(F)cncc3F)nn2C)cn1` [Example 2, N-(3,5-Difluoro-pyridin-4-yl)-5-(6-ethoxy-4-methyl-pyridin-3-yl)-1-methyl-1H-pyrazole-3-carboxylic acid amide], the inhibition at 10 µM in experiment [1] (setting [4]) was 95%; in experiment [1] (setting [3]), over 70%. Besides, the IC50 in experiment [2] lay within 0.5 to 1 µM.
In the case of `CCOc1cc(OC)c(-c2cc(C(=O)Nc3c(F)cncc3F)nn2C)cn1` [Example 14, N-(3,5-Difluoro-pyridin-4-yl)-5-(6-ethoxy-4-methoxy-pyridin-3-yl)-1-methyl-1H-pyrazole-3-carboxylic acid amide], the inhibition at 10 µM in experiment [1] (setting [3]) is over 70%. The IC50 in experiment [2] was under 0.5 µM.
Take `Cc1cc(OC2COC2)ncc1-c1cc(C(=O)Nc2c(F)cccc2F)nn1C` [Example 23, N-(2,6-Difluoro-phenyl)-1-methyl-5-[4-methyl-6-(oxetan-3-yloxy)-pyridin-3-yl]-1H-pyrazole-3-carboxylic acid amide]: the inhibition at 10 µM in experiment [1] (setting [4]) was 94%; in experiment [1] (setting [3]), over 70%. Moreover, the IC50 in experiment [2] lay in the range of 1 to 5 µM.
With `CCOc1cc(OC(F)F)c(-c2cc(C(=O)Nc3c(F)cccc3F)nn2C)cn1` [Example 47, 5-[4-(Difluoro-methoxy)-6-ethoxy-pyridin-3-yl]-N-(2,6-difluoro-phenyl)-1-methyl-1H-pyrazole-3-carboxylic acid amide], the inhibition at 10 µM in experiment [1] (setting [3]) was over 70%. The IC50 in experiment [2] is under 0.5 µM.
Take `CCOc1cc(OCC)c(-c2cc(C(=O)Nc3c(F)cccc3F)nn2C)cn1` [Example 17, 5-(4,6-Diethoxy-pyridin-3-yl)-N-(2,6-difluoro-phenyl)-1-methyl-1H-pyrazole-3-carboxylic acid amide]: the inhibition at 10 µM in experiment [1] (setting [3]) was over 70%. The IC50 in experiment [2] was under 0.5 µM.
